Measurements: patent publication US20160175249A1, “Liposomes Containing Oligopeptide Fragments of Myelin Basic Protein, a Pharmaceutical Composition and a Method for Treatment of Multiple Sclerosis” (LIPOXEN TECHNOLOGIES LIMITED, priority 2009, published 2016)

Tests used:
[1] = tested on: experimental allergic encephalomyelitis (EAE) in DA rats; assay: Treatment of EAE in DA rats with liposomally encapsulated MBP peptides (Example 5); format: in vivo; details: 150 μg per animal daily subdermally days 6-11, score 0-5
Experimental: To induce experimental allergic encephalomyelitis (EAE) in DA rats having a mass of 220-250 g ([…]), 10 μg of myelin basic protein encephalogenic peptide fragment ARTTHYGSLPQKSQRSQ (SEQ ID NO:4; Anaspec, US) emulsified in Freund's complete adjuvant (Difco, US) at a concentration of 10% (m/v) was subdermally injected into the forepaw. The rats were weighted and monitored for EAE neurological symptoms daily. The EAE symptom profile of each rate was scored according to the following scale: (0)—absence of EAE symptoms; (1)—decrease in tail tonicity; (2)—decrease in righting reflex; (3)—paresis; (4)—full paralysis; and (5)—agony or death. Intermediary symptoms were scored by increasing or decreasing the value by 0.5 units. Six days after EAE induction, animals were randomly distributed into several groups (12 animals each).
Between days six and eleven after induction, rats in each respective group were subdermally injected with the liposomal preparation described in Example 2 (emulsified in phosphate saline solution, pH 7.4), a positive control preparation of glatiramer acetate (GA; copaxone, Teva Pharmaceutical Industries Ltd, Israel), a prototype peptide: DENPVVIIFFKNIVTPRT (SEQ ID NO:5), or a buffered phosphate saline solution (pH 7.4) placebo. The peptide, Glatiramer acetate, and liposomal preparations were formulated immediately prior to administration using buffered phosphate saline solution (pH 7.4). 0.1 mL of each composition was administered daily at a concentration of 150 μg per animal.

EAE-induced DA rats = assay: EAE-induced DA rat model, paralysis score and mortality (DA-EAE-28-01, Example 12); format: in vivo; details: 54 EAE induced DA rats; daily s.c. injection, 6 total; peptide dose 50 μg (mixtures 150 μg); deaths/N
Experimental: Each of the seven formulations being evaluated was provided as a lyophilized powder and stored at 4° C. Rehydration of each daily group dose was done with water for injection according to Table 6. MBP peptide formulations were re-suspended in water for injection (Cure Medical) and copaxone (Teva LTD) was diluted with Saline to a final concentration of 150 μg/mL. Each subject animal was administered the test formulation for 6 consecutive days by subcutaneous injection.
9 week old Dark Agouti (DA) female rats (Harlan Laboratories, Inc.), weighing between 125 and 145 grams were used as the test subjects. The health status of the animals used in this study was examined on arrival. Only animals in good health were acclimatized to laboratory conditions and were used in the study. Animals were provided Protein Rodent Diet (Teklad) ad libitum and free access to drinking water. Animals were housed in a controlled environment at between 20° C. and 24° C. with a relative humidity of 30-70% and a 12 hr light/12 hr dark cycle. Animals were randomly assigned to their respective test group. This study was performed following the review by the Committee for Ethical Conduct in the Care and Use of Laboratory Animals of the Assaf Harofeh medical center, Beer Yaakov, Ethical Committee number: 68/2009.
For induction of EAE, rats were intradermally injected at the base of the tail with a total volume of 200 μl of inoculum containing 50 μg of MBP(63-81) (ANASPEC), in saline mixed (1:1) with CFA, (IFA, Sigma) and 1 mg Mt (strain H37 RA; Difco Laboratories, Detroit, Mich.).
The rats were evaluated up daily starting 24 hours after immunization. […]
7-10 days post EAE induction, 54 animals were divided to 9 groups (6 rats in each), and blood was collected from 2 rats of each group before the initiation of the treatment. […] The animals were maintained and evaluated until day 28th post EAE-induction. […]
Animals were observed individually and clinical signs were recorded once daily during all study periods. […] The body weight of each animals was determined daily during all study periods. […]

glatiramer acetate [copaxone]
Evaluation of EAE symptom intensity, average ([1]; day 0 after EAE induction): 0.00 | Evaluation of EAE symptom intensity, average ([1]; day 1 after EAE induction): 0.00 | Evaluation of EAE symptom intensity, average ([1]; day 2 after EAE induction): 0.00 | Evaluation of EAE symptom intensity, average ([1]; day 3 after EAE induction): 0.00 | Evaluation of EAE symptom intensity, average ([1]; day 4 after EAE induction): 0.00 | Evaluation of EAE symptom intensity, average ([1]; day 5 after EAE induction): 0.00 | Evaluation of EAE symptom intensity, average ([1]; day 6 after EAE induction): 0.00 | Evaluation of EAE symptom intensity, average ([1]; day 7 after EAE induction): 0.00 | Evaluation of EAE symptom intensity, average ([1]; day 8 after EAE induction): 0.50 | Evaluation of EAE symptom intensity, average ([1]; day 9 after EAE induction): 1.67 | Evaluation of EAE symptom intensity, average ([1]; day 10 after EAE induction): 2.17 | Evaluation of EAE symptom intensity, average ([1]; day 11 after EAE induction): 2.25 | Evaluation of EAE symptom intensity, average ([1]; day 12 after EAE induction): 2.25 | Evaluation of EAE symptom intensity, average ([1]; day 13 after EAE induction): 2.83 | Evaluation of EAE symptom intensity, average ([1]; day 14 after EAE induction): 2.75 | Evaluation of EAE symptom intensity, average ([1]; day 15 after EAE induction): 2.33 | Evaluation of EAE symptom intensity, average ([1]; day 16 after EAE induction): 2.08 | Evaluation of EAE symptom intensity, average ([1]; day 17 after EAE induction): 2.17 | Evaluation of EAE symptom intensity, average ([1]; day 18 after EAE induction): 2.17 | Evaluation of EAE symptom intensity, average ([1]; day 19 after EAE induction): 1.75 | Evaluation of EAE symptom intensity, average ([1]; day 20 after EAE induction): 1.67 | Evaluation of EAE symptom intensity, average ([1]; day −1 after EAE induction): 0.00 | Mortality Rate (EAE-induced DA rats): 2/6
